Test results as given in patent publication US12503475B2 (Centessa Pharmaceuticals (UK) Limited, priority 2020, dated 2025).
Where two headings read alike, the source gives them in different places.

Target: T1, human orexin type 2 receptor (hOX2R) (Homo sapiens, UniProt O43614)
T1 construct: expressed in transfected cells
T1 sequence (O43614 1-444): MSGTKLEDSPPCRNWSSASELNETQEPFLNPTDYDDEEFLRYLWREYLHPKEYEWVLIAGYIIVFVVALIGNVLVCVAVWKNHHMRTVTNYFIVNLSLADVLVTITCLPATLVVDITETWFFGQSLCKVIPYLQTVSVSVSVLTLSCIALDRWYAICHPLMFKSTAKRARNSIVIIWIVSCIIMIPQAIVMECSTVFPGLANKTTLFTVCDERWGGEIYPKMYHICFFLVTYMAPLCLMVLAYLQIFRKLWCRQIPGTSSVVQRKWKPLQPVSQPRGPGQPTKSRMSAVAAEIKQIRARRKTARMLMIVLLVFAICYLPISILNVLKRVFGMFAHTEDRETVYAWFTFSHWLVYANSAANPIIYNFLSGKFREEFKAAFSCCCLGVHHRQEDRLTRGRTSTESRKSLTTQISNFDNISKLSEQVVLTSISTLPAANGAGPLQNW
Assay: Measurement of orexin type 2 receptor agonist activity (FLIPR calcium fluorescence)
Type: cell-based
Conditions: for EC50: read-out: hOx2 pEC50 (converted); for Emax: CHO, read-out: hOx2 Emax (%)
In short: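 Agonism was read as fluorescence in cells stably expressing human OX2R. E. is the response at 10 μM relative to orexin A as full agonist (100%).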

[1] = CHO cells expressing hOX2R, FLIPR calcium fluorescence

| SMILES | EC50 [1] [nM] | Emax [1] [%] | Emax [%] |
| --- | --- | --- | --- |
| CC(C)S(=O)(=O)N[C@@H]1[C@H](Cc2cccc(-c3ccccc3)c2)N(C(=O)[C@H]2CCO2)CC12CC2 [Compound 114, N-((6S,7S)-6-([1,1′-biphenyl]-3-ylmethyl)-5-((R)-oxetane-2-carbonyl)-5-azaspiro[2.4]heptan-7-yl)propane-2-sulfonamide] | 1 to 10 | 80 to 90 | – |
| O=C([C@H]1CCO1)N1CC2(CC2)[C@H](NS(=O)(=O)C(F)F)[C@@H]1Cc1cccc(-c2ccccc2)c1 [Compound 115, N-((6S,7S)-6-([1,1′-biphenyl]-3-ylmethyl)-5-((R)-oxetane-2-carbonyl)-5-azaspiro[2.4]heptan-7-yl)-1,1-difluoromethanesulfonamide] | 1 to 10 | – | 90 to 100 |
| CN(C)S(=O)(=O)N[C@@H]1[C@H](Cc2cccc(-c3ccccc3)c2F)N(C(=O)N2CCC2)CC12CC2 [Compound 116, N-((6S,7S)-5-(azetidine-1-carbonyl)-6-((2-fluoro-[1,1′-biphenyl]-3-yl)methyl)-5-azaspiro[2.4]heptan-7-yl)-N,N-dimethylsulfuric diamide] | 0.0794 to 1 | – | 90 to 100 |
| CN(C)S(=O)(=O)N[C@@H]1[C@H](Cc2cccc(-c3ccccc3)c2F)N(C(=O)N2CC(F)C2)CC12CC2 [Compound 117, N-((6S,7S)-6-((2-fluoro-[1,1′-biphenyl]-3-yl)methyl)-5-(3-fluoroazetidine-1-carbonyl)-5-azaspiro[2.4]heptan-7-yl)-N,N-dimethylsulfuric diamide] | 0.0794 to 1 | 90 to 100 | – |
| COC1CN(C(=O)N2CC3(CC3)[C@H](NS(=O)(=O)N(C)C)[C@@H]2Cc2cccc(-c3ccccc3)c2F)C1 [Compound 118, N-((6S,7S)-6-((2-fluoro-[1,1′-biphenyl]-3-yl)methyl)-5-(3-methoxyazetidine-1-carbonyl)-5-azaspiro[2.4]heptan-7-yl)-N,N-dimethylsulfuric diamide] | 1 to 10 | 90 to 100 | – |
| CN(C)S(=O)(=O)N[C@@H]1[C@H](Cc2cccc(-c3ccccc3)c2F)N(C(=O)[C@H](O)C(F)(F)F)CC12CC2 [Compound 119, N-((6S,7S)-6-((2-fluoro-[1,1′-biphenyl]-3-yl)methyl)-5-((S)-3,3,3-trifluoro-2-hydroxypropanoyl)-5-azaspiro[2.4]heptan-7-yl)-N,N-dimethylsulfuric diamide] | 0.0794 to 1 | 90 to 100 | – |
| CN(C)S(=O)(=O)N[C@@H]1[C@H](Cc2cccc(-c3ccccc3)c2F)N(C(=O)C2(O)CCC2)CC12CC2 [Compound 120, N-((6S,7S)-6-((2-fluoro-[1,1′-biphenyl]-3-yl)methyl)-5-(1-hydroxycyclobutane-1-carbonyl)-5-azaspiro[2.4]heptan-7-yl)-N,N-dimethylsulfuric diamide] | 0.0794 to 1 | 90 to 100 | – |
| CCNC(=O)N1CC2(CC2)[C@H](NS(=O)(=O)N(C)C)[C@@H]1Cc1cccc(-c2ccccc2)c1F [Compound 121] | 0.0794 to 1 | 90 to 100 | – |
| CS(=O)(=O)N[C@@H]1[C@H](Cc2cc(F)cc(-c3cccc(F)c3)c2F)N(C(=O)[C@H]2CCO2)CC12CC2 [Compound 122, N-((6S,7S)-5-((R)-oxetane-2-carbonyl)-6-((2,3′,5-trifluoro-[1,1′-biphenyl]-3-yl)methyl)-5-azaspiro[2.4]heptan-7-yl)methanesulfonamide] | 0.0794 to 1 | 90 to 100 | – |
| O=C([C@H]1CCO1)N1CC2(CC2)[C@H](NS(=O)(=O)CF)[C@@H]1Cc1cc(F)cc(-c2cccc(F)c2)c1F [Compound 123, 1-fluoro-N-((6S,7S)-5-((R)-oxetane-2-carbonyl)-6-((2,3′,5-trifluoro-[1,1′-biphenyl]-3-yl)methyl)-5-azaspiro[2.4]heptan-7-yl)methanesulfonamide] | 0.0794 to 1 | 90 to 100 | – |
| CN(C)S(=O)(=O)N[C@@H]1[C@H](Cc2cc(F)cc(-c3cccc(F)c3)c2F)N(C(=O)[C@H]2CCO2)CC12CC2 [Compound 124, 1-fluoro-N-((6S,7S)-5-((R)-oxetane-2-carbonyl)-6-((2,3′,5-trifluoro-[1,1′-biphenyl]-3-yl)methyl)-5-azaspiro[2.4]heptan-7-yl)-N,N-dimethylsulfuric diamide] | 0.0794 to 1 | 80 to 90 | – |
| O=C([C@H]1CCO1)N1CC2(CC2)[C@H](NS(=O)(=O)CF)[C@@H]1Cc1cccc(-c2cccc(F)c2)c1F [Compound 132, N-((6S,7S)-6-((2,3′-dfluoro-1,1′-biphenyl-3-yl)methyl)-5-((R)-oxetane-2-carbonyl)-5-azaspiro[2.4]heptan-7-yl)-1-fluoromethanesulfonamide] | 0.0794 to 1 | 90 to 100 | – |
| CC(C)(O)C(=O)N1CC2(CC2)[C@H](NS(=O)(=O)CF)[C@@H]1Cc1cccc(-c2ccccc2)c1F [Compound 134, 1-fluoro-N-((6S,7S)-6-((2-fluoro-[1,1′-biphenyl]-3-yl)methyl)-5-(2-hydroxy-2-methylpropanoyl)-5-azaspiro[2.4]heptan-7-yl)methanesulfonamide] | 1 to 10 | 90 to 100 | – |
| O=C(NCC1(F)CC1)N1CC2(CC2)[C@H](NS(=O)(=O)CF)[C@@H]1Cc1cccc(-c2ccccc2)c1F [Compound 157, (6S,7S)-6-((2-fluoro-[1,1′-biphenyl]-3-yl)methyl)-N-((1-fluorocyclopropyl)methyl)-7-((fluoromethyl)sulfonamido)-5-azaspiro[2.4]heptane-5-carboxamide] | 0.0794 to 1 | 90 to 100 | – |
| C[C@H](CF)NC(=O)N1CC2(CC2)[C@H](NS(=O)(=O)CF)[C@@H]1Cc1cccc(-c2ccccc2)c1F [Compound 158] | 0.0794 to 1 | 90 to 100 | – |
| C[C@H](F)C(=O)N1CC2(CC2)[C@H](NS(=O)(=O)C(F)F)[C@@H]1Cc1cccc(-c2ccccc2)c1F [Compound 160, 1,1-difluoro-N-((6S,7S)-6-((2-fluoro-[1,1′-biphenyl]-3-yl)methyl)-5-((S)-2-fluoropropanoyl)-5-azaspiro[2.4]heptan-7-yl)methanesulfonamide] | 0.0794 to 1 | 90 to 100 | – |
| CS(=O)(=O)N[C@@H]1[C@H](Cc2cccc(-c3cccc(Cl)c3)c2F)N(C(=O)[C@H]2CCO2)CC12CC2 [Compound 161, N-((6S,7S)-6-((3′-chloro-2-fluoro-[1,1′-biphenyl]-3-yl)methyl)-5-((R)-oxetane-2-carbonyl)-5-azaspiro[2.4]heptan-7-yl)methanesulfonamide] | 1 to 10 | 90 to 100 | – |
| CC(C)S(=O)(=O)N[C@@H]1[C@H](Cc2cccc(-c3ccccc3)c2F)N(C(=O)[C@H]2CCO2)CC12CC2 [Compound 162, N-((6S,7S)-6-((2-fluoro-[1,1′-biphenyl]-3-yl)methyl)-5-((R)-oxetane-2-carbonyl)-5-azaspiro[2.4]heptan-7-yl)propane-2-sulfonamide] | 1 to 10 | 90 to 100 | – |
| O=C([C@H]1CCO1)N1CC2(CC2)[C@H](NS(=O)(=O)C(F)F)[C@@H]1Cc1cccc(-c2ccccc2F)c1F [Compound 163, N-((6S,7S)-6-((2,2′-difluoro-[1,1′-biphenyl]-3-yl)methyl)-5-((R)-oxetane-2-carbonyl)-5-azaspiro[2.4]heptan-7-yl)-1,1-difluoromethanesulfonamide] | 1 to 10 | 90 to 100 | – |
| CC(C)(O)C(=O)N1CC2(CC2)[C@H](NS(=O)(=O)C(F)F)[C@@H]1Cc1cccc(-c2cccc(F)c2)c1F [Compound 164, N-((6S,7S)-6-((2,3′-difluoro-[1,1′-biphenyl]-3-yl)methyl)-5-(2-hydroxy-2-methylpropanoyl)-5-azaspiro[2.4]heptan-7-yl)-1,1-difluoromethanesulfonamide] | 10 to 100 | 80 to 90 | – |
| O=C(NCC(F)F)N1CC2(CC2)[C@H](NS(=O)(=O)C(F)F)[C@@H]1Cc1cccc(-c2ccccc2)c1F [Compound 165, (6S,7S)-N-(2,2-difluoroethyl)-7-((difluoromethyl)sulfonamido)-6-((2-fluoro-[1,1′-biphenyl]-3-yl)methyl)-5-azaspiro[2.4]heptane-5-carboxamide] | 1 to 10 | 90 to 100 | – |
| O=C(NCC1(F)CC1)N1CC2(CC2)[C@H](NS(=O)(=O)C(F)F)[C@@H]1Cc1cccc(-c2ccccc2)c1F [Compound 166, (6S,7S)-7-((difluoromethyl)sulfonamido)-6-((2-fluoro-[1,1′-biphenyl]-3-yl)methyl)-N-((1-fluorocyclopropyl)methyl)-5-azaspiro[2.4]heptane-5-carboxamide] | 1 to 10 | 90 to 100 | – |
| O=C([C@H]1CCO1)N1CC2(CC2)[C@H](NS(=O)(=O)C(F)(F)F)[C@@H]1Cc1cccc(-c2ccccc2)c1F [Compound 167, 1,1,1-trifluoro-N-((6S,7S)-6-((2-fluoro-[1,1′-biphenyl]-3-yl)methyl)-5-((R)-oxetane-2-carbonyl)-5-azaspiro[2.4]heptan-7-yl)methanesulfonamide] | 10 to 100 | 80 to 90 | – |
| O=C([C@H]1CCO1)N1CC2(CC2)[C@H](NS(=O)(=O)CF)[C@@H]1Cc1cccc(-c2cccc(F)c2F)c1F [Compound 168, 1-fluoro-N-((6S,7S)-5-((R)-oxetane-2-carbonyl)-6-((2,2′,3′-trifluoro-[1,1′-biphenyl]-3-yl)methyl)-5-azaspiro[2.4]heptan-7-yl)methanesulfonamide] | 1 to 10 | 90 to 100 | – |
